Test results from a melting point compilation (Tetko et al.; mined from patent text by program, amines drawn as free bases though some values may be those of a salt).

melting point [°C] | SMILES
206 to 207 | COC(=O)N1CCN(c2ccn3nc(-c4ccccc4)c(-c4ccc(=O)n(C(C)C)n4)c3c2)CC1
178 to 181 | O=C(O)COc1ccc2cc(-c3oc4ccccc4c3C(=O)c3ccccc3)ccc2c1
> 260 | O=C1OC(=O)c2ccc3c4cccc5cccc(c6ccc1c2c63)c54
258 to 260 | N#Cc1ccc(-c2ccc3c(c2)C2(CCCCC2)C(=O)N3)cc1F
126 to 128 | COc1ccc2c(c1)OCC(=Cc1cccnc1)C2=O
103 to 104 | CCOC(=O)c1cn(Cc2ccc(OCc3ccccc3)cc2)nc1-c1ccc(F)cc1
249 to 250 | CC(C)n1c(C(F)(F)F)cnc1-c1ccc(O)cc1
213 to 216 | CNC1CCCN(C(=O)c2ccc(NC(=O)c3ccccc3C)s2)c2ccc(Cl)cc21 (stereo unspecified)
220 to 223 | COc1cc2ncc(C#N)c(Cl)c2cc1OC
195 to 198 | Oc1ccc(Sc2ccc(F)cc2)c2ccccc12
209 to 211 | [O-][N+]1=C(c2ccccc2)C2=NCCN2c2cc(N3CCNCC3)ccc21
210 to 214 | Cc1cc(NC(=O)NC(=O)c2c(Cl)cccc2Cl)ncc1-c1ccccc1
124 to 126 | Cc1ccc(N=C(Nc2ccc(C)cc2)ON2C(C)(C)CC(O)CC2(C)C)cc1
190 to 192 | Nc1ccc2ncnc(Nc3cccc(C(F)(F)F)c3)c2c1
208 | C=Cc1ccc(CP(=O)(C(=O)c2c(C)cc(C)cc2C)C(=O)c2c(C)cc(C)cc2C)cc1
174 to 175 | N#Cc1ccc2c(c1)C(n1ccccc1=O)=CC(CF)(CF)O2
91 to 96 | C[C@H](c1ccccc1)n1c(=O)c2c(N3CCNCC3)cc(Cl)cc2n(Cc2ccccc2)c1=O
147 to 148 | O=Cc1nn(-c2ccc([N+](=O)[O-])cc2)c2c1CCCC2
131 | Cc1c(NC(=O)c2ccc(OCCC(C)C)cc2F)ccc2cc(CN3CCCC3)cnc12

melting point [°C] | SMILES
204 | Cc1cc2cc(CN3CCCCCC3)cnc2cc1NC(=O)c1ccc(-c2ccc(Cl)cc2)cc1
100 to 101 | CCCCN(CCCC)C(=N)c1ccc(-c2ccc([N+](=O)[O-])cc2)o1
> 225 | NCC1Cc2cc3c(cc2O1)CCCC3 (stereo unspecified)
198 to 200 | COc1ccc(-c2[nH]c(-c3cccc4ccccc34)nc2C(=O)Nc2nccs2)cc1
114 to 116 | COc1cc(C(C)=O)ccc1OCCCCN1CCN(c2nsc3ccccc23)CC1
166 to 167 | N#Cc1c(N2CCCCC2)cc(-c2ccc3ccccc3c2)c2c1-c1ccccc1C2=O
270 to 271 | Cc1ccc(-c2c3n(c(=O)c4ncccc24)CCN(Cc2cc(C(F)(F)F)cc(C(F)(F)F)c2)C3=O)cc1
135 to 136 | c1ccc(-c2ccc3cc(COc4ccc(CCCn5ccnc5)cc4)cnc3c2)cc1
164 to 167 | N#CC1(c2ccc(NC(=O)c3ccc4c(c3)OCCO4)cc2)CCCC1
262 to 264 | COc1ccccc1C1=Nc2ccc(N3CCOCC3)cc2C(=O)C1
148 to 150 | O=C1C(=O)N(Cc2ccc(C(F)(F)F)o2)c2cccc(Cl)c21
123 to 124 | COc1ccc(Cc2nc(-c3ccc(F)cc3)c(-c3ccc(S(C)(=O)=O)cc3)o2)cc1
130 to 132 | Cc1ccc(S(=O)(=O)c2ccc3c(c2)CCCC3)cc1
207 | Cn1c(=O)[nH]c2cc(F)ccc21
191 to 195 | O=C(Nc1ccc2cc(CN3CCC(CO)CC3)cnc2c1)c1ccc(-c2ccc(F)cc2)cc1
130 to 132 | Cc1c(-c2ccccc2)c(N2CC[C@H](N(C)C)C2)c2oc(C(C)(C)F)nc2c1C#N
79 to 81 | COc1cccc2c1OCN(CCc1ccccc1Cl)C2
154 to 155 | Nc1cc2c(cc1Oc1ccccc1)C(=O)CCO2

The next lines start with the molecule.

SMILES | melting point [°C]
CCOC(=O)C1(C(=O)OCC)CCC2(NCCc3cc(OC)c(OC)cc32)C(C2c3cc(OC)c(OC)cc3CCN2CC)C1 (stereo unspecified) | 146 to 147
CCCCCCCCCCNC(=O)CC#N | 78.5 to 80
O=C(O)[C@@H]1C[C@@H](SC(c2ccccc2)(c2ccccc2)c2ccccc2)CN1S(=O)(=O)c1ccc2ccccc2c1 | 64 to 69
CSc1nc(Cl)cc2nncn12 | 164 to 165
CC(C)(C)c1ncc(C=O)cn1 | 82 to 83
COc1ccc(CC(OC)C(=O)O)cc1NC(=O)Cc1ccc(C(F)(F)F)cc1 (stereo unspecified) | 124 to 125
CC1SC(=O)C=NC1=O (stereo unspecified) | 81 to 83
CCOC=CC(=O)Nc1ccc(-n2cnc(C)c2)cc1 | 214 to 216
CCn1ncnc1COc1nc2c(nnn2-c2ccccc2)c2ccccc12 | 192 to 195
COc1cc(CO)cc(OC)c1Br | 100 to 102
Clc1nc(N2CCOCC2)c2ncnc(Cl)c2n1 | 179 to 181
CC=CC=CC(=O)N1CC1C#N (stereo unspecified) | 56 to 58
Cn1cnc2c(Cl)nccc21 | 127 to 131
CC(=O)C1CCC2C3CCC4=CC(=O)C=CC4(C)C3C(O)CC12CO[N+](=O)[O-] (stereo unspecified) | 162 to 164
CC(=O)OCC(=O)Nc1cc(C#N)cc(NC(=O)COC(C)=O)c1Cl | 193 to 195
CC[Si](CC)(CC)c1cccc(-c2ccccc2)c1O | 44 to 46
CCC(O)c1c(C)c(NC(=O)CC(C)(C)C)c(C)c2c1OCC2c1ccc(C(C)C)cc1 (stereo unspecified) | 165 to 167
CC(C)(C)OC(=O)Nc1ccc(F)nc1 | 112 to 113
CCCCCCCc1cnc(-c2ccc(C(=O)Oc3ccc(-c4ncc(CCCCC)cn4)cc3)cc2)nc1 | 97
COCCCOc1ccc(/C=C/C(=O)O)c(Oc2ncc(C(F)(F)F)cc2Cl)c1 | 131 to 133
CNCCNC(=O)c1nc(Cl)c(N)nc1N | 142 to 143
CCCCc1nc2c(N)nc3cc(/C=C/c4ccccc4)ccc3c2n1CC(C)C | 215 to 216

SMILES | melting point [°C]
CC(C)(CNC(=O)c1ccccc1-c1ccccc1C(=O)O)SN=O | 121 to 123
CCN(CC)CC(=O)Nc1ccc(NC(=O)Nc2ccc(N(CCCl)CCCl)cc2)cc1 | 209 to 211
CCOC(=O)c1nc(C=Cc2cccc(C(F)(F)F)c2)oc1C | 103 to 104
Cc1nc(-n2ccc(N)cc2=O)sc1C(=O)NCc1ccccc1 | 171 to 172
CSCC(=O)N=C(SC)N(C)N=Cc1ccccc1 | 68 to 70
CC(=O)C(Cl)=NNc1cccc(C)c1 | 144 to 146
Cc1cn2cccc(OCc3c(Cl)ccc(S(=O)(=O)N4CCC[C@H]4C(=O)N4CCN(C(=O)c5ccc(C=NN)cc5)CC4)c3Cl)c2n1 | 159 to 161
CN1C(=O)NC(=O)C1=O | 146 to 149
CN(C)c1c(C(N)=O)sc2cccc(Cl)c12 | 194 to 196
Cc1c(Br)cc2[nH]c(=O)c(=O)[nH]c2c1[N+](=O)[O-] | > 340
CC1(C)N=C(c2ccccc2F)c2cc(C#N)ccc2NC1=O | 206
Clc1nnnc(-c2cccc3ccccc23)c1Cl | 165 to 170
CCCCCC[C@@H](F)COc1cnc(-c2ccc(CCCCC)c(F)c2F)nc1 | 74.7
CCCCCCCCCCOc1cc(OCCCCCCc2cccc(O)c2O)cc(C(=O)OC)c1 | 71 to 72
O=[N+]([O-])c1cnc(Cl)nc1NCCO | 123 to 125
O=C(NCCCCOc1ccc(-n2ccnc2)cc1)c1ccc(Br)cc1 | 140 to 141
COc1ccccc1N=C(C)CC(=O)C(F)(F)F | 40
Cc1nccc2[nH]c(=O)c(C(N)=O)cc12 | > 320
COC(=O)c1ccc(C(=O)NCc2cccc3ccccc23)s1 | 125
NC(c1ccccc1)c1ccc(OCCCOc2ccc(C(N)c3ccccc3)cc2)cc1 (stereo unspecified) | 118 to 119
CCCc1nn(C)c2c1N=C(c1cc(C(=O)O)ccc1OCC)NC2 | 285 to 288
O=C(NC(=O)c1c(Cl)cccc1Cl)Nc1cc(Cl)c(OC(F)(F)C(F)Cl)cc1Cl (stereo unspecified) | 198 to 200

SMILES | melting point [°C]
CC1(C)OC(=O)C(=Cc2ccc(I)s2)C1=O | 182 to 184
O=C(Nc1ccccc1O)C(=O)Nc1ccccc1O | > 250
OCc1csc(Cl)c1Cl | 63 to 65
COc1cc(-c2ncn(-c3cc(OC)c(OC)c(OC)c3)c2-c2cc(OC)c(OC)c(OC)c2)cc(OC)c1OC | 169 to 171
Brc1cnc2nc(N3CCN(CCCCOc4ccccc4)CC3)nn2c1 | 122 to 123
CS(=O)c1ccc(C(=O)Cc2ccccc2)cc1 (stereo unspecified) | 104
Cc1ccc(O)c(-c2nc(N(C)C)sc2C(c2ccc(N(C)C)cc2)c2ccc(N(C)C)cc2)c1 | 189 to 191
O=C(O)c1ccc(OCCCO/N=C/c2ccc(C(F)(F)F)cc2)cc1NC(=O)c1ccccc1C(F)(F)F | 147 to 148
CCCCCCCCCCCCCCCCCCOP(=O)(Cc1c(C)cc(C(C)(C)C)c(O)c1C)OCCCCCCCCCCCCCCCCCC | 70 to 72
CC1CC(=O)NN=C1c1ccc(-n2ccnc2)nc1 (stereo unspecified) | 140
Nc1nc2cccnc2c2c1nc(CCCO)n2CC1(O)CCOCC1 | 237 to 238
CCc1noc(-c2ncc3[nH]c4cccc(OCc5ccccc5)c4c3c2COC)n1 | 180 to 184
CCCc1nnc(/C=C/c2nc(-c3ccccc3)oc2COc2ccc(OCc3nc(-c4ccccc4)oc3C)cc2)o1 | 119 to 120
Cc1ccc(NC(=O)c2ccc(C(=O)Nc3ccccc3N)s2)cc1Nc1nccc(-c2cccnc2)n1 | 280
CC(C)c1cccc(C(C)C)c1NS(=O)(=O)CC#N | 195 to 197
COc1ccccc1SCC1SCCN1C(=S)CC(C)=O (stereo unspecified) | 62 to 64
CCc1nnc2cc(N3CCN(C)CC3)nc(CC)n12 | 128 to 131
CCNc1ccc(NC(C)=O)c(C)c1 | 102 to 103
COc1cc(Cc2nnc(N[C@H]3CC[C@H](C(C)C)CC3)c3ccccc23)ccn1 | 65 to 66
CCCCCCCCCCCCCCCCCCOc1ccc2c(c1)C(=O)c1ccc(OCCCCCCCCCCCCCCCCCC)cc1C2=O | 112 to 122
